# From paper PMC11528067, “Structural Bases of Dihydroxy Acid Dehydratase Inhibition and Biodesign for Self-Resistance” (Biodesign Research, 2024)
# Values joined by “and” are separate entries in the source; they are usually repeats but may differ in a detail not shown here. Equal values may be shown once.
# Assays:
# [1] = biological target: T1, AthDHAD (Arabidopsis thaliana, UniProt Q9LIR4); assay: In vitro activity and AA inhibition assay of AthDHAD; assay type: biochemical, A. thaliana; conditions: AthDHAD wild type
# T1 construct: made in house; host or cells: E. coli BL21(DE3)
# T1 sequence (Q9LIR4 35-608): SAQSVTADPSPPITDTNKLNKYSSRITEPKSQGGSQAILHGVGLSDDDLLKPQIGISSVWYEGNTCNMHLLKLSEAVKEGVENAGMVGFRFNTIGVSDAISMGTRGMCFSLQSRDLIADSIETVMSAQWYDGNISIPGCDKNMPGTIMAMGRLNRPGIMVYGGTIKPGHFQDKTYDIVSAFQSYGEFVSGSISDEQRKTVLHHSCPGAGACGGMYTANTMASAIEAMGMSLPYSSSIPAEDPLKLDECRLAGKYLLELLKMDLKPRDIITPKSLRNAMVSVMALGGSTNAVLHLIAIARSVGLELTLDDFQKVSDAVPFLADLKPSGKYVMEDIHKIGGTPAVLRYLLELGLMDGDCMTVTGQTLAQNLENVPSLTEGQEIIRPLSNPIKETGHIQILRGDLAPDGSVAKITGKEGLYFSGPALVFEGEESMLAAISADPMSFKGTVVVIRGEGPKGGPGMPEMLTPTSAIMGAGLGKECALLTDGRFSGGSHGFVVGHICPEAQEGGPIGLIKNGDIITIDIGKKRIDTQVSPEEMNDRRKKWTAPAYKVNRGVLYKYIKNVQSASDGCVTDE
# Protocol: (§1) In vitro activity assays were carried out in 25 μl of reaction mixture containing A10 buffer without NaCl. The Michaelis–Menten constants (kcat, KM) for each enzyme were calculated by fitting the following formula to the observed reaction rate. V=VmaxS/KM+S Vmax=kcatE0
# (§2) The inhibition percentages of AA on AthDHADs were determined using in vitro biochemical assays and calculated with the following equation:
# (§3) Inhibition percentage = 100 − 100 × (initial reaction rate with AA/initial reaction rate without AA)
# (§4) The inhibition assays were conducted with either 10 mM (±)-sodium-α,β-dihydroxyisovalerate (DHI) or 10 mM (±)-sodium-α,β-dihydroxymethylvalerate hydrate (DHMV), along with 0.5 μM of purified AthDHAD enzyme or its mutants. The reaction was initiated by adding the corresponding enzymes, followed by a 20-min incubation at 28°C. To halt the reactions, an equal volume of acetonitrile was introduced. Subsequently, approximately 0.04 volumes of 100 mM phenylhydrazine were added to facilitate the derivatization of the product, either 2-keto-isovalerate or 2-keto-3-methylvalerate, at room temperature for 30 min. For HPLC analysis, 10 μl of the reaction mixture was utilized.
# [2] = biological target: T2, AthDHAD-I177L (Arabidopsis thaliana, UniProt Q9LIR4, I211L); assay: In vitro activity and AA inhibition assay of AthDHAD mutant I177L; assay type: biochemical, A. thaliana
# T2 construct: made in house; host or cells: E. coli BL21(DE3)
# Protocol: as §1, §2, §3, §4
# [3] = biological target: T3, AthDHAD-I177F (Arabidopsis thaliana, UniProt Q9LIR4, I211F); assay: In vitro activity and AA inhibition assay of AthDHAD mutant I177F; assay type: biochemical, A. thaliana
# T3 construct: made in house; host or cells: E. coli BL21(DE3)
# Protocol: as §1, §2, §3, §4
# [4] = biological target: T4, AthDHAD-V178L (Arabidopsis thaliana, UniProt Q9LIR4, V212L); assay: In vitro activity and AA inhibition assay of AthDHAD mutant V178L; assay type: biochemical, A. thaliana; conditions: DHI as substrate (10 mM), 0.5 μM enzyme
# T4 construct: made in house; host or cells: E. coli BL21(DE3)
# Protocol: as §1, §2, §3, §4
# [5] = biological target: T5, AthDHAD-V178I (Arabidopsis thaliana, UniProt Q9LIR4, V212I); assay: In vitro activity and AA inhibition assay of AthDHAD mutant V178I; assay type: biochemical, A. thaliana; conditions: DHI as substrate (10 mM), 0.5 μM enzyme
# T5 construct: made in house; host or cells: E. coli BL21(DE3)
# Protocol: as §1, §2, §3, §4
# [6] = biological target: T6, AthDHAD-V178F (Arabidopsis thaliana, UniProt Q9LIR4, V212F); assay: In vitro activity and AA inhibition assay of AthDHAD mutant V178F; assay type: biochemical, A. thaliana; conditions: DHI as substrate (10 mM), 0.5 μM enzyme
# T6 construct: made in house; host or cells: E. coli BL21(DE3)
# Protocol: as §1, §2, §3, §4
# [7] = biological target: T7, AthDHAD-V178W (Arabidopsis thaliana, UniProt Q9LIR4, V212W); assay: In vitro activity and AA inhibition assay of AthDHAD mutant V178W; assay type: biochemical, A. thaliana; conditions: DHI as substrate (10 mM), 0.5 μM enzyme
# T7 construct: made in house; host or cells: E. coli BL21(DE3)
# Protocol: as §1, §2, §3, §4
# [8] = biological target: T8, AthDHAD-V496L (Arabidopsis thaliana, UniProt Q9LIR4, V530L); assay: In vitro activity and AA inhibition assay of AthDHAD mutant V496L; assay type: biochemical, A. thaliana; conditions: DHI as substrate (10 mM), 0.5 μM enzyme
# T8 construct: made in house; host or cells: E. coli BL21(DE3)
# Protocol: as §1, §2, §3, §4
# [9] = biological target: T9, AthDHAD-V496I (Arabidopsis thaliana, UniProt Q9LIR4, V530I); assay: In vitro activity and AA inhibition assay of AthDHAD mutant V496I; assay type: biochemical, A. thaliana
# T9 construct: made in house; host or cells: E. coli BL21(DE3)
# Protocol: as §1, §2, §3, §4
# [10] = biological target: T10, AthDHAD-V496F (Arabidopsis thaliana, UniProt Q9LIR4, V530F); assay: In vitro activity and AA inhibition assay of AthDHAD mutant V496F; assay type: biochemical, A. thaliana
# T10 construct: made in house; host or cells: E. coli BL21(DE3)
# Protocol: as §1, §2, §3, §4
# [11] = biological target: T11, AthDHAD-V497L (Arabidopsis thaliana, UniProt Q9LIR4, V531L); assay: In vitro activity and AA inhibition assay of AthDHAD mutant V497L; assay type: biochemical, A. thaliana
# T11 construct: made in house; host or cells: E. coli BL21(DE3)
# Protocol: as §1, §2, §3, §4
# [12] = biological target: T12, AthDHAD-V497I (Arabidopsis thaliana, UniProt Q9LIR4, V531I); assay: In vitro activity and AA inhibition assay of AthDHAD mutant V497I; assay type: biochemical, A. thaliana; conditions: DHI as substrate (10 mM), 0.5 μM enzyme
# T12 construct: made in house; host or cells: E. coli BL21(DE3)
# Protocol: as §1, §2, §3, §4
# [13] = biological target: T13, AthDHAD-V497F (Arabidopsis thaliana, UniProt Q9LIR4, V531F); assay: In vitro activity and AA inhibition assay of AthDHAD mutant V497F; assay type: biochemical, A. thaliana; conditions: DHI as substrate (10 mM), 0.5 μM enzyme
# T13 construct: made in house; host or cells: E. coli BL21(DE3)
# Protocol: as §1, §2, §3, §4
# [14] = biological target: T14, AthDHAD-I177L-V496L (Arabidopsis thaliana, UniProt Q9LIR4, I211L/V530L); assay: In vitro activity and AA inhibition assay of AthDHAD double mutant I177L/V496L; assay type: biochemical, A. thaliana
# T14 construct: made in house; host or cells: E. coli BL21(DE3)
# Protocol: as §1, §2, §3, §4
# [15] = biological target: T15, AthDHAD-I177L-V497L (Arabidopsis thaliana, UniProt Q9LIR4, I211L/V531L); assay: In vitro activity and AA inhibition assay of AthDHAD double mutant I177L/V497L; assay type: biochemical, A. thaliana
# T15 construct: made in house; host or cells: E. coli BL21(DE3)
# Protocol: as §1, §2, §3, §4
# [16] = biological target: T16, AthDHAD-V178L-V497L (Arabidopsis thaliana, UniProt Q9LIR4, V212L/V531L); assay: In vitro activity and AA inhibition assay of AthDHAD double mutant V178L/V497L; assay type: biochemical, A. thaliana
# T16 construct: made in house; host or cells: E. coli BL21(DE3)
# Protocol: as §1, §2, §3, §4
# [17] = tested on: A. thaliana transgenic lines with mutant AthDHAD (V178L and V496L); assay: Growth inhibition of AA on transgenic A. thaliana with mutant AthDHAD (V178L and V496L); assay type: in vivo; conditions: 100 μM AA on Murashige and Skoog medium, day 7; V178L and V496L lines compared to line expressing AstD
# Description: The gene block containing DHAD variants, and the 2XFLAG-tag was synthesized and then cloned into modified pEG302 vector using Gateway LR Clonase II Enzyme Mix (Thermo Fisher Scientific). Ubiquitin-10 promoter was used to drive the expression of DHAD variants. The construct was electrotransformed into Agrobacterium tumefaciens strain Agl0 and then transformed into A. thaliana rdr6-15 in which the transgene silencing pathway is blocked. Positive transgenic plants were selected using the hygromycin B and were tested for survival in the presence of AA.
# A. thaliana seeds were sterilized with 70% ethanol and sown on Murashige and Skoog medium supplemented with either ethanol control or 100 μM AA. Photos were taken, and fresh weights were measured at day 7.
# [18] = biological target: T1, AthDHAD; conditions: cited from earlier work
# [19] = tested on: AteDHAD; set-up: method as in PMID 29995859; conditions: housekeeping DHAD from A. terreus (XP_001208445.1); cited from earlier work
# [20] = tested on: AstD; conditions: cited from earlier work
# [21] = tested on: A. thaliana; set-up: method as in PMID 29995859; conditions: A. thaliana as a model plant organism; cited from earlier work
# [22] = tested on: Transgenic A. thaliana expressing AstD; set-up: method as in PMID 29995859; conditions: cited from earlier work
# T6 sequence (Q9LIR4 35-608 V212F): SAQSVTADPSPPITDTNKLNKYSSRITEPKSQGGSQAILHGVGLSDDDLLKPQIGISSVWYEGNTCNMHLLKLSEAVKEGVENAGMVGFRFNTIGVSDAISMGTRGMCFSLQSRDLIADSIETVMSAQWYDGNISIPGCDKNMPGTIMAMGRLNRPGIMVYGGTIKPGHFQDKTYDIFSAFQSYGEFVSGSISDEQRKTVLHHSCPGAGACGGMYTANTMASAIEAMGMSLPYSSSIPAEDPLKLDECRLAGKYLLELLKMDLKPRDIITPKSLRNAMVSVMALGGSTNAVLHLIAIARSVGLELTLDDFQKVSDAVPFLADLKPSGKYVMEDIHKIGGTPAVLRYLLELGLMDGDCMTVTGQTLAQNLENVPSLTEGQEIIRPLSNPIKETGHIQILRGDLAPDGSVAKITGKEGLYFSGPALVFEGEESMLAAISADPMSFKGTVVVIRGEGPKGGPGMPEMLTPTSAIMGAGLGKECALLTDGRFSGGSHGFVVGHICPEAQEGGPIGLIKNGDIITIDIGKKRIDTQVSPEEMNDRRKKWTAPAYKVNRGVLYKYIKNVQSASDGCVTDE
# T8 sequence (Q9LIR4 35-608 V530L): as the sequence (Q9LIR4 35-608 V212F) above, with F178V, V496L counted along it
# T4 sequence (Q9LIR4 35-608 V212L): as the sequence (Q9LIR4 35-608 V212F) above, with F178L counted along it
# T7 sequence (Q9LIR4 35-608 V212W): as the sequence (Q9LIR4 35-608 V212F) above, with F178W counted along it
# T5 sequence (Q9LIR4 35-608 V212I): as the sequence (Q9LIR4 35-608 V212F) above, with F178I counted along it
# T12 sequence (Q9LIR4 35-608 V531I): as the sequence (Q9LIR4 35-608 V212F) above, with F178V, V497I counted along it
# T13 sequence (Q9LIR4 35-608 V531F): as the sequence (Q9LIR4 35-608 V212F) above, with F178V, V497F counted along it
# T15 sequence (Q9LIR4 35-608 I211L/V531L): as the sequence (Q9LIR4 35-608 V212F) above, with I177L, F178V, V497L counted along it
# T3 sequence (Q9LIR4 35-608 I211F): as the sequence (Q9LIR4 35-608 V212F) above, with I177F, F178V counted along it
# T9 sequence (Q9LIR4 35-608 V530I): as the sequence (Q9LIR4 35-608 V212F) above, with F178V, V496I counted along it
# T11 sequence (Q9LIR4 35-608 V531L): as the sequence (Q9LIR4 35-608 V212F) above, with F178V, V497L counted along it
# T10 sequence (Q9LIR4 35-608 V530F): as the sequence (Q9LIR4 35-608 V212F) above, with F178V, V496F counted along it
# T16 sequence (Q9LIR4 35-608 V212L/V531L): as the sequence (Q9LIR4 35-608 V212F) above, with F178L, V497L counted along it
# T14 sequence (Q9LIR4 35-608 I211L/V530L): as the sequence (Q9LIR4 35-608 V212F) above, with I177L, F178V, V496L counted along it
# T2 sequence (Q9LIR4 35-608 I211L): as the sequence (Q9LIR4 35-608 V212F) above, with I177L, F178V counted along it
smiles,measurement,setting,value
"CC[C@@](C)(O)[C@@H](O)C(=O)O (racemic) [DHMV, (±)-sodium-α,β-dihydroxymethylvalerate hydrate, reference compound]",Km,[1]; substrate DHMV,4 ± 0.45 mM
same,kcat,[1]; substrate DHMV,6.50 ± 0.32 s⁻¹
"CC(C)=C1CCC23COC(C2)C(O)(C(=O)O)CCC13 (centres unmarked) [AA, aspterric acid]",IC50,"[1]; DHI as substrate (10 mM), 0.5 μM enzyme",250 nM and 249 nM
same,IC50,[2],50 ± 1 nM
same,IC50,[3],37000 ± 8770 nM
same,IC50,[4],970 nM and 974 nM
same,IC50,[5],430 nM and 431 nM
same,IC50,[6],6000 nM and 5990 nM
same,IC50,[7],2340 nM
same,IC50,[8],820 nM and 824 nM
same,IC50,[9],1140 ± 52 nM
same,IC50,[10],2940 nM
same,IC50,[11],59 nM
same,IC50,[12],73.3 nM and 73 nM
same,IC50,[13],1250 nM
same,IC50,[14],309 ± 74 nM
same,IC50,[15],28 nM
same,IC50,[16],396 ± 11 nM
same,growth of transgenic plants in the presence of AA,[17],not able to rescue the growth of the plants
same,Ki,[18]; binding of AA to AthDHAD as a competitive inhibitor,~300 nM
same,mode of inhibition,[18]; housekeeping DHAD from A. thaliana (AT3G23940),competitive inhibitor
same,mode of inhibition,[19],competitive inhibitor
same,AA resistance observed in AstD,[20]; reported,over 8 mM
same,sensitivity of AstD to AA,[20]; within the solubility limit (8 mM),completely insensitive
same,herbicidal effect in spray experiments,[21],effective as an herbicide
same,resistance of transgenic plants to AA,[22],strong resistance
